Data published in patent publication US6514911B1, “Substituted oxadiazines useful as pesticides” (Uniroyal Chemical Company, Inc., priority 2002, dated 2003).

Assays:
Assay type in all cases: in vivo
[1] = test system: barnyardgrass (Echinochloa crus-galli (L.) Beauv.) (BG); assay: Preemergence herbicide test, soil drench, barnyardgrass; details: two weeks after treatment
Description: (§1) To illustrate the effectiveness of the previously described substituted oxadiazines of this invention as preemergence herbicides, 300 mg of the chemical was dissolved in a composition comprising 10 mL acetone to which 30 mg of tile emulsifying agent, ethoxylated sorbitan monolaurate, was added. The solution was diluted to 100 mL with distilled water. Ten milliliters of this 3000 ppm solution was diluted to 250 ppm with distilled water. The chemical was applied at the rate of 10 pounds/acre (11.2 kg/ha) by drenchings 46 mL of the 250 ppm solution on the surface of soil in 4½ inch (11.25 cm) plastic pots wherein seeds of the following weeds had been planted: barnyardgrass (Echinochloa crus-galli (L.) Beauv.) (BG), and The percent control of the weeds compared to untreated checks was determined two weeks after treatment. TABLE 1 summarizes the results achieved with compounds formulated as indicated above, and the data clearly indicate the good to excellent herbicidal efficacy of compositions of this invention.

[2] = test system: green foxtail (Setaria virdis (L.) Beauv.) (GF); assay: Preemergence herbicide test, soil drench, green foxtail; details: two weeks after treatment
Description: as §1, with “41⁄2” for “4½”, “green foxtail (Setaria […].)” for “barnyardgrass (Echinochloa crus-galli (L.)”, “(GF).” for “(BG), and”

[3] = test system: velvetleaf (Abutilon theophrasti Medik.) (VL); assay: Preemergence herbicide test, soil drench, velvetleaf; details: 10 lbs/A (11.2 kg/ha) soil drench, two weeks after treatment, vs untreated checks; for pest or weed control at 11208.5 g/ha: Abutilon theophrasti, 336 h, read-out: Percent Weed Control VL
Description: as §1, with “velvetleaf (Abutilon theophrasti Medik.) (VL),” for “barnyardgrass (Echinochloa crus-galli (L.) Beauv.) (BG), and”

[4] = test system: prickly sida (Sida spinosa L.) (PS); assay: Preemergence herbicide test, soil drench, prickly sida; details: two weeks after treatment
Description: To illustrate the effectiveness of the previously described substituted oxadiazines of this invention as preemergence herbicides, 300 mg of the chemical was dissolved in a composition comprising 10 mL acetone to which 30 mg of tile emulsifying agent, ethoxylated sorbitan monolaurate, was added. The solution was diluted to 100 mL with distilled water. Ten milliliters of this 3000 ppm solution was diluted to 250 ppm with distilled water. […]
prickly sida (Sida spinosa L.) (PS),
(§2) The percent control of the weeds compared to untreated checks was determined two weeks after treatment. TABLE 1 summarizes the results achieved with compounds formulated as indicated above, and the data clearly indicate the good to excellent herbicidal efficacy of compositions of this invention.

[5] = test system: switchgrass (Panicum virgahim L.) (SG); assay: Preemergence herbicide test, soil drench, switchgrass; details: two weeks after treatment; for Percent Weed Control SG / pest or weed control at 11208.5 g/ha: 10 lbs/A (11.2 kg/ha) soil drench, vs untreated checks
Description: To illustrate the effectiveness of the previously described substituted oxadiazines of this invention as preemergence herbicides, 300 mg of the chemical was dissolved in a composition comprising 10 mL acetone to which 30 mg of tile emulsifying agent, ethoxylated sorbitan monolaurate, was added. The solution was diluted to 100 mL with distilled water. Ten milliliters of this 3000 ppm solution was diluted to 250 ppm with distilled water. The chemical was applied at the rate of 10 pounds/acre (11.2 kg/ha) by drenchings 46 mL of the 250 ppm solution on the surface of soil in 4½ inch (11.25 cm) plastic pots wherein seeds of the following weeds had been planted:
switchgrass (Panicum virgahim L.) (SG),
as §2

[6] = test system: tall morningglory (Ipomoea purpurea (L.) Roth) (TM); assay: Preemergence herbicide test, soil drench, tall morningglory; details: 10 lbs/A (11.2 kg/ha) soil drench, two weeks after treatment, vs untreated checks; for pest or weed control at 11208.5 g/ha: Ipomoea, 336 h, read-out: Percent Weed Control TM
Description: as §1, with “tall morningglory (Ipomoea purpurea” for “barnyardgrass (Echinochloa crus-galli”, “Roth) (TM),” for “Beauv.) (BG), and”

[7] = 10 lbs/A (11.2 kg/ha) soil drench, vs untreated checks
[8] = Echinochloa crus-galli, 336 h, 10 lbs/A (11.2 kg/ha) soil drench, vs untreated checks, read-out: Percent Weed Control BG
[9] = Setaria, 336 h, 10 lbs/A (11.2 kg/ha) soil drench, vs untreated checks, read-out: Percent Weed Control GF
[10] = Sida spinosa, 336 h, 10 lbs/A (11.2 kg/ha) soil drench, vs untreated checks, read-out: Percent Weed Control PS
[11] = Panicum, 336 h, read-out: Percent Weed Control SG
[12] = 5 lbs/A (footnote for 32 and 33)

Structure (SMILES) | pest or weed control at 11208.5 g/ha [1, 8] | pest or weed control at 11208.5 g/ha [2, 9] | pest or weed control at 11208.5 g/ha [3] | pest or weed control at 11208.5 g/ha [4, 10] | pest or weed control at 11208.5 g/ha [5, 11] | pest or weed control at 11208.5 g/ha [6] | also measured
FC(F)(F)c1cccc(C2=NC(C(F)(F)F)(C(F)(F)F)N=C(C(F)(F)C(F)(F)C(F)(F)F)O2)c1 [Compound 29, 2-(heptafluoropropyl)-4,4-bis(trifluoromethyl)-6-{(3-trifluoromethyl)phenyl}-4H-1,3,5-oxadiazine] |  |  |  |  |  |  | Percent Weed Control BG [1, 7]: 100%; Percent Weed Control GF [2, 7]: 100%; Percent Weed Control VL [3]: 100%; Percent Weed Control PS [4, 7]: 100%; Percent Weed Control SG [5]: 100%; Percent Weed Control TM [6]: 100%
Nc1ccc(C2=NC(C(F)(F)F)(C(F)(F)F)N=C(C(F)(F)F)O2)cc1 [Compound 9, 2-(4-aminophenyl)-4,4,6-tris(trifluoromethyl)-4H-1,3,5-oxadiazine] | 0% | 90% | 90% | 0% | 90% | 0% | 
FC(F)(F)c1cc(C2=NC(C(F)(F)F)(C(F)(F)F)N=C(C(F)(F)C(F)(F)F)O2)cc(C(F)(F)F)c1 [Compound 18, 2-{3,5-bis(trifluoromethyl)phenyl}-6-(pentafluoroethyl)-4,4-bis(trifluoromethyl)-4H-1,3,5-oxadiazine] | 100% | 100% | 100% | 100% | 100% | 100% | 
FC(F)(F)Oc1ccc(C2=NC(C(F)(F)F)(C(F)(F)F)N=C(C(F)(F)F)O2)cc1 [Compound 8, 2-{4-(trifluoromethoxy)phenyl}-4,4,6-tris(trifluoromethyl)-4H-1,3,5-oxadiazine] | 100% | 100% | 100% | 100% | 100% | 100% | 
FC(F)(F)C1=NC(C(F)(F)F)(C(F)(F)F)N=C(c2ccccc2)O1 [Compound 1, 2-phenyl-4,4,6-tris(trifluoromethyl)-4H-1,3,5-oxadiazine] | 0% | 0% | 100% | 100% | 0% | 100% | 
FC(F)(F)C1=NC(C(F)(F)F)(C(F)(F)F)N=C(c2cccc(C(F)(F)F)c2)O1 [Compound 7, 2,4,4-tris(trifluoromethyl)-6-{(3-trifluoromethyl)phenyl}-4H-1,3,5-oxadiazine] |  |  |  |  |  |  | Percent Weed Control BG [1, 7]: 100%; Percent Weed Control GF [2, 7]: 100%; Percent Weed Control VL [3]: 100%; Percent Weed Control PS [4, 7]: 100%; Percent Weed Control SG [5]: 100%; Percent Weed Control TM [6]: 100%
FC(F)(F)C(F)(F)C1=NC(C(F)(F)F)(C(F)(F)F)N=C(c2ccccc2)O1 [Compound 11, 2-(pentafluoroethyl)-6-phenyl-4,4-bis(trifluoromethyl)-4H-1,3,5-oxadiazine] | 0% | 50% | 100% | 100% | 0% | 100% | 
FC(F)(F)c1ccc(C2=NC(C(F)(F)F)(C(F)(F)F)N=C(C(F)(F)C(F)(F)C(F)(F)F)O2)cc1 [Compound 30, 2-(heptafluoropropyl)-4,4-bis(trifluoromethyl)-6-{(4-trifluoromethyl)phenyl}-4H-1,3,5-oxadiazine] |  |  |  |  |  |  | Percent Weed Control BG [1, 7]: 100%; Percent Weed Control GF [2, 7]: 100%; Percent Weed Control VL [3]: 100%; Percent Weed Control PS [4, 7]: 100%; Percent Weed Control SG [5]: 100%; Percent Weed Control TM [6]: 100%
Fc1ccccc1C1=NC(C(F)(F)F)(C(F)(F)F)N=C(C(F)(F)F)O1 [Compound 3, 2-(2-fluorophenyl)-4,4,6-tris(trifluoromethyl)-4H-1,3,5-oxadiazine] | 0% | 40% | 100% | 0% | 30% | 0% | 
O=Cc1ccc(C2=NC(C(F)(F)F)(C(F)(F)F)N=C(C(F)(F)C(F)(F)F)O2)cc1 [Compound 31, 4-{6-(pentafluoroethyl)-4,4-bis(trifluoromethyl)-4H-1,3,5-oxadiazin-2-yl}-benzaldehyde] | 100% |  |  |  |  |  | 
FC(F)C1=NC(C(F)(F)F)(C(F)(F)F)N=C(c2ccc(C(F)(F)F)cc2)O1 [Compound 33, 21-(dfluoromethyl)-4,4-bis(trifluoromethyl)-6-(4-trifluoromethylphenyl)-4H-1,3,5-oxadiazine] |  |  |  |  |  |  | Percent Weed Control BG [1, 12]: 20%; Percent Weed Control GF [2, 12]: 40%; Percent Weed Control PS [4, 12]: 100%
FC(F)C1=NC(C(F)(F)F)(C(F)(F)F)N=C(c2cccc(C(F)(F)F)c2)O1 [Compound 32, 2-(difluoromethyl)-4,4-bis(trifluoromethyl)-6-(3-trifluoromethylphenyl)-4H-1,3,5-oxadiazine] |  |  |  |  |  |  | pest or weed control at 5604.25 g/ha ([1]; Echinochloa crus-galli, pre-emergence, 336 h, 5 lbs/A (footnote for 32 and 33), read-out: Percent Weed Control BG): 80%; pest or weed control at 5604.25 g/ha ([2]; Setaria, pre-emergence, 336 h, 5 lbs/A (footnote for 32 and 33), read-out: Percent Weed Control GF): 100%; pest or weed control at 5604.25 g/ha ([4]; Sida spinosa, pre-emergence, 336 h, 5 lbs/A (footnote for 32 and 33), read-out: Percent Weed Control PS): 100%; pest or weed control at 5604.25 g/ha ([5]; Panicum, pre-emergence, 336 h, 5 lbs/A (footnote for 32 and 33), read-out: Percent Weed Control SG): 0%
